Where “and” joins values, the source holds several entries; their conditions need not be identical. Equal values may be shown once.
Tested on: PICK1-WT and PICK1-KO mice, SNI model
Test: SNI model, von Frey, PICK1-WT and PICK1-KO mice;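 on von Frey paw withdrawal threshold, individual animals (Fig 5F): time points given in hours with 0 hours as the comparison point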
Assay type: in vivo, mouse
Details: for effect on mechanical hypersensitivity (PWT): s.c.
Description: solution (0.05 mg/kg) injected s.c. 30 min before surgery (10 μL/g). For surgery, mice were anaesthetised with ketamine (100 mg/kg, i.p.) and xylazine (10 mg/kg, i.p.) (volume 10 µL/g) with 100 μL of 1% xylocaine solution infiltrated at the site of the incision. The distal trifurcation of the sciatic nerve was identified, and the tibial and common peroneal branches were ligated with polypropylene nonabsorbable 6-0 sutures (Ethicon) and 1 mm was cut out, leaving the sural branch intact. The wound was closed with sutures, and the animals were allowed to recover and returned to their cages. Two subcutaneous injections of buprenorphine (0.05 mg/kg) were performed with an 8 to 12 hours delay decreasing pain due to the surgery […]
The remaining SNI pain experiments were performed in-house using the following procedure.
SNI surgery was performed on the left hindleg of C57BL/6J male and female mice (Janvier, France) under 2% isoflurane anaesthesia. Skin on the lateral surface was incised between hip and knee followed by lengthwise division of the biceps femoris muscle leading to exposure of the three branches of the sciatic nerve. Sural branch was left intact, while the peroneal and tibial branches were ligated with a single surgical knot and axotomized distally of the ligation.
Wounds were closed with surgical glue or medical clips and animals were monitored daily for signs of stress or discomfort, but in all cases recovered uneventfully. […]
The skin wound was closed with two medical clips (Michel Suture Clips, 7.5x1.75 mm, Angthos, 12040-01). Post-surgical analgesia included s.c. injection of 5 mg/kg carprofen (Carprosan vet, 50 mg/mL mixed 1:25 in sterile ddH2O, Dechra, Le Vet Beheer B.V., Netherlands, Batch: 050520) right after surgery and the […]
following day. […]
The test battery of the CIBP model was carried out 45 or 90 min after morphine and mPD5 administration respectively to accommodate the peak efficacy […]
Mechanically evoked pain (von Frey test).
Unless otherwise specified, von Frey occurred as described in the following. Animals were habituated to the experimental room for a minimum of 60 min before initiation of the experiment. Mechanical paw withdrawal threshold (PWT) was determined by von Frey measurements of both hind paws. Von Frey filaments ranging from 0.04 to 2 g (g = gram- […]
Filaments in ascending order were applied to the frontocentral plantar surface of the hind paws.
Mice were placed in PVC plastic boxes (11.5 cm x 14 cm) on a wire mesh and allowed minimum 20 min habituation prior of experiment initiation. Each von Frey hair was applied five times with adequate resting periods between each application and number of withdrawals recorded. The withdrawal threshold was determined as the von Frey filament eliciting at least three positive trials out of the five applications in two consecutive filaments. A positive trial was defined as sudden paw withdrawal, flinching and/or paw licking induced by the filament.
For the CIBP model, two habituation sessions were performed on separated days with mice placed in the von Frey equipment for 1-1.5 hours in the presence of the experimenter on day one and random von Frey pocking with the 0.6 g filament on day two. Von Frey monofilaments (North Coast Touch Test, North Coast Medical, Inc.) with target forces of 0.04g, 0.07g, 0.16g, […]
down method” (PWT=10Xf+kδ) starting with the 0.6 g filament. Positive response was defined as; withdrawal, shaking or grooming of paw following a 2-3 second stimulation. In case, of unclear response, stimulus was repeated after 10-15 seconds.
For the STZ model, the mechanical threshold response of the injected mice was measured with […]
injection of test compounds on day 14, mechanical threshold was measured at 1 hour, 2 hours, 4 hours and 6 hours and again on day 15. […]
Thermally evoked pain (Hargreaves test).
A baseline Hargreaves test was performed on day 0 before inflammatory pain was induced as described in section 2.13. In the Hargreaves test, the mouse was placed in a container on a glass […]

## CCCCCCCCCCCCCC(=O)N(CCOCCOCCC(=O)N[C@@H](Cc1c[nH]cn1)C(=O)N[C@@H](Cc1c[nH]c2ccccc12)C(=O)N[C@@H](CC(C)C)C(=O)N[C@@H](CCCCN)C(=O)N[C@H](C(=O)O)C(C)C)CCOCCOCCC(=O)N[C@@H](Cc1c[nH]cn1)C(=O)N[C@@H](Cc1c[nH]c2ccccc12)C(=O)N[C@@H](CC(C)C)C(=O)N[C@@H](CCCCN)C(=O)N[C@H](C(=O)O)C(C)C [mPD5, myristoyl-NPEG4-(HWLKV)2]
PICK1-KO mice following SNI surgery
  effect on mechanical hypersensitivity (PWT): no effect on mechanical hypersensitivity
PICK1-KO, CONTRA, BL
  von Frey paw withdrawal threshold, individual animals (Fig 5F): 1.4 (4×) and 2 (2×)
PICK1-KO, CONTRA, time 0
  von Frey paw withdrawal threshold, individual animals (Fig 5F): 1 (3×) and 1.4 (3×)
PICK1-KO, CONTRA, time 1
  von Frey paw withdrawal threshold, individual animals (Fig 5F): 1.4 (3×) and 0.6 and 2 and 1
PICK1-KO, CONTRA, time 5
  von Frey paw withdrawal threshold, individual animals (Fig 5F): 1 and 1.4 (3×) and 2 (2×)
PICK1-KO, injured side, BL
  von Frey paw withdrawal threshold, individual animals (Fig 5F): 1.4 (4×) and 2 and 1
PICK1-KO, injured side, time 0
  von Frey paw withdrawal threshold, individual animals (Fig 5F): 0.6 and 0.07 and 0.4 (2×) and 0.16 (2×)
PICK1-KO, injured side, time 1
  von Frey paw withdrawal threshold, individual animals (Fig 5F): 0.4 (2×) and 0.16 (3×) and 0.07
PICK1-KO, injured side, time 5
  von Frey paw withdrawal threshold, individual animals (Fig 5F): 0.16 (2×) and 0.07 (3×) and 0.4
PICK1-WT, CONTRA, BL
  von Frey paw withdrawal threshold, individual animals (Fig 5F): 1 (2×) and 1.4 (4×)
PICK1-WT, CONTRA, time 0
  von Frey paw withdrawal threshold, individual animals (Fig 5F): 1.4 (4×) and 1 and 2
PICK1-WT, CONTRA, time 1
  von Frey paw withdrawal threshold, individual animals (Fig 5F): 1.4 (3×) and 1 (2×) and 2
PICK1-WT, CONTRA, time 5
  von Frey paw withdrawal threshold, individual animals (Fig 5F): 1.4
PICK1-WT, injured side, BL
  von Frey paw withdrawal threshold, individual animals (Fig 5F): 1 (2×) and 1.4 (3×) and 2
PICK1-WT, injured side, time 0
  von Frey paw withdrawal threshold, individual animals (Fig 5F): 0.07 (2×) and 0.16 (3×) and 0.4
PICK1-WT, injured side, time 1
  von Frey paw withdrawal threshold, individual animals (Fig 5F): 1.4 (4×) and 1 (2×)
PICK1-WT, injured side, time 5
  von Frey paw withdrawal threshold, individual animals (Fig 5F): 0.6 (2×) and 0.4 (3×) and 1
WT littermates following SNI surgery
  effect on mechanical hypersensitivity (PWT): significantly reduced

— publication PMC11530130, “Peripherally restricted PICK1 inhibitor mPD5 ameliorates pain behaviors in murine inflammatory and neuropathic pain models” (JCI Insight, 2024)
